SMILES strings stand for the structures.

What is called IC50 is the midpoint of a concentration-inhibition curve.

Assay [1] relates to CAR-Jurkat. As to the kind of experiment: T cell stimulation assay with kinase inhibitor, IL-2 ELISA readout. It is filed as cell-based, human. Particulars: for IC50: Homo sapiens, T-cell, CAR-Jurkat stimulated with CHO-L2, 18 hrs, read-out: IC50 of inhibitor on IL-2 production. The procedure: (§1) Artificial antigen presenting CHO cells (APC-CHO) were seeded onto a 96 well flat plate at 2-3×10^4 per well one day before. For APC-CHO requiring peptide pulsing, peptide was added at 4 uM for 3 hrs, and then washed away before CAR-T or TCR-T cells were added. Each CAR-T cell or TCR T cell sample was counted and suspended at a concentration of 10^6 per ml in culturing RPMI medium. 200 ul per well of suspended cell solution was then added into APC-CHO pre-seeded plate. For inhibitor experiments, inhibitor was added accordingly into the cell mixture. Technical triplicates were performed for all experiments. The cells were incubated at 37° C., 5% CO2 for 18 hrs. After incubation, supernatant was collected for human IL-2 ELISA assay, which was performed according to the manufacturer's protocol (Invitrogen). The T cell pellets were resuspended for surface staining or used for another round of stimulation by repeating the method described above.
For orientation: An ELISA detects its analyte on a solid surface through an enzyme-linked reagent.

The subject of assay [2] is CAR-Jcam. As to the kind of experiment: T cell stimulation assay with SFK inhibitor, IL-2 ELISA readout. It is filed as cell-based, human. Particulars: CAR-Jcam (LCK-deficient). The procedure: as §1
Assay [3] relates to TCR-Jurkat. As to the kind of experiment: T cell stimulation assay with kinase inhibitor, IL-2 ELISA readout. It is filed as cell-based. As to conditions: Homo sapiens, TCR-Jurkat stimulated with CHO-L2, 18 hrs, read-out: IC50 of inhibitor on IL-2 production. The method, then: as §1

Take `CC(C)(C)n1nc(-c2ccc(Cl)cc2)c2c(N)ncnc21` [PP2]: the “IL-2 production after inhibitor was added” value in assay [1] (CAR-Jurkat) and in assay [2] was “entirely quenched” each time.
Regarding `COc1cc(-c2nn([C@H]3CC[C@H](N4CCN(C(C)=O)CC4)CC3)c3ncnc(N)c23)ccc1NC(=O)c1cc2ccccc2n1C` [A770041], the half-maximal inhibitory concentration (IC50) in assay [1] was 47 nM; in assay [3], 6.6 nM.
For `CN(C)S(=O)(=O)c1ccc2c(c1)/C(=C/c1cc3c([nH]1)CCCC3)C(=O)N2` [SU6656], in that order: 3760 nM and 5580 nM.
